For twelve compounds, IC50 and GI50 results are on record in US11608343B2, “Substituted pyrimido[5,4-d]pyrimidines as HER2 inhibitors” (Boehringer Ingelheim International GmbH, priority 2020, dated 2023).

Each structure is given as a SMILES string.

Holding throughout (format): cell-based
Assay [1] concerns the target T1, HER2 YVMA (Homo sapiens, UniProt P04626, INS775YVMA).
T1 construct: expressed in transfected cells; host or cells: human HEK cells, retroviral transduction, doxycycline-inducible expression
The experiment in a line: pHER2 (ERBB2) YVMA assay: phosphorylation of HER2 YVMA at Tyr1221/1222 in HEK cells (AlphaScreen Surefire). The following applies: doxycycline induced, 4 h with compound. The procedure: For the assay, HEK HER2 YVMA cells are seeded in MEM medium with 10% FBS. 4 hours prior to compound addition, HER2 YVMA expression is induced using 1 μg/mL Doxycycline. […] Subsequently, 60.000 cells/well in 60 μL are added. Cells are incubated with compound for 4 h at 37° C. […] The mixture is incubated at a temperature of 20-25° C. with shaking (700 rpm) for 20 min. After centrifugation, 4 μL of the lysate are transferred to Proxiplates. […] Plates are shaken for 1 min (1400 rpm) and incubated for 2 h at a temperature of 20-25° C. in the dark. […] Plates are shaken for 1 min (1400 rpm) and incubated for 2 h at a temperature of 20-25° C. in the dark. Plates are subsequently analyzed using an Envision reader platform. […] IC50 values are computed from these values in the MEGASTAR IC50 application using a 4 parametric logistic model. […] The results of the assay are provided as IC50 values.

In assay [2] the test system is Ba/F3 cells HER2 WT. The assay is described as follows: Ba/F3 proliferation assay, HER2 WT, CellTiter-Glo. The following applies: Mus musculus, BaF3, 72 h. The procedure: (§1) Ba/F3 Cell Model Generation and Proliferation Assays
(§2) Plasmids containing HER2 mutants and EGFR WT were obtained from GeneScript. To generate EGFR/HER2-dependent Ba/F3 models, Ba/F3 cells are transduced with retroviruses containing vectors that harbor EGFR WT, HER2 WT or HER2 mutants (YVMA). Platinum-E cells (Cell Biolabs) are used for retrovirus packaging. Retrovirus is added to Ba/F3 cells. To ensure infection, 4 μg/mL polybrene is added and cells are spin-infected. Infection efficiency is confirmed by measuring GFP-positive cells using a cell analyzer. Cells with an infection efficiency of 10% to 20% are further cultivated and puromycin selection with 1 μg/mL is initiated. As a control, parental Ba/F3 cells are used to assess the selection status. Selection is considered successful when parental Ba/F3 cells cultures die. To evaluate the transforming potential of HER2 mutations, the growth medium is no longer supplemented with IL-3. Ba/F3 cells harboring the empty vector are used as a control. A switch from IL-3 to EGF is performed for Ba/F3 cells expressing EGFR WT known for its dependency on EGF ligand. Approximately ten days before conducting the experiments, puromycin is left out. For proliferation assays (data in tables 10 and 12), Ba/F3 cells are seeded into 96-well plates at 5×10^3 cells/100 μL in growth media. Compounds are added by using a HP D3000 Digital Dispenser. All treatments are performed in technical triplicates. Treated cells are incubated for 72 h at 37° C. with 5% CO2. A CellTiter-Glo® Luminescent Cell Viability Assay (Promega) is performed and chemoluminescence is measured by using the multilabel Plate Reader VICTOR X4. The raw data are imported into and analyzed with the Boehringer Ingelheim proprietary software MegaLab (curve fitting based on the program PRISM, GraphPad Inc.).

Assay [3] addresses T2, EGFR wild type (WT) (Homo sapiens, UniProt P00533).
T2 construct: expressed in transfected cells; host or cells: human HEK cells (ATCC CRL-1573), retroviral transduction
The experiment in a line: pEGFR assay: phosphorylation of EGFR at Tyr1068 in HEK cells expressing EGFR WT (AlphaScreen Surefire). The note with it: 4 h with compound. The procedure: This assay quantifies the phosphorylation of EGFR at Tyr1068 and is used to measure the inhibitory effect of compounds on the transgenic EGFR wild type (WT) protein expressed in HEK cells.
Transduced cells are selected using puromycin. p-EGFR Tyr1068 is determined using the AlphaScreen Surefire pEGF Receptor (Tyr1068) Assay (PerkinElmer, TGRERS). For the assay, HEK EGFR WT cells are seeded in MEM medium with 10% FBS. […] Subsequently, 60.000 cells/well in 60 μL are added. Cells are incubated with compound for 4 h at 37° C. […] The mixture is incubated at a temperature of 20-25° C. with shaking (700 rpm) for 20 min. After centrifugation, 4 μL of the lysate are transferred to Proxiplates. […] Plates are shaken for 1 min (1400 rpm) and incubated for 2 h at a temperature of (20-25° C.) in the dark. […] Plates are shaken for 1 min (1400 rpm) and incubated for 2 h at a temperature of (20-25° C.) in the dark. Plates are subsequently analyzed using an Envision reader platform. […] IC50 values are computed from these values in the MEGASTAR IC50 application using a 4 parametric logistic model.
This cellular phospho-EGFR (pEGFR) compound dose-response assay quantifies the phosphorylation of EGFR at Tyr1068 in HEK cells expressing EGFR WT. The results of the assay are provided as IC50 values.

Assay [4] deals with NCI-H2170 (HER2 wild type) cells. The experiment in a line: Tumor cell line proliferation assay, NCI-H2170 (HER2 wild type), CellTiter-Glo. The note with it: Homo sapiens, 72 h, read-out: GI50 NCI H-2170 HER2 wt amp. The procedure:
(§3) For proliferation assays, NCI-H2170 (HER2 wild type), NCI-H2170 HER2 YVMA and EGFR WT dependent A431 cells are used. NCI-H2170 HER2 YVMA or NCI-H2170 cells are seeded into 96-well plates at 750 cells/60 μL in growth media (RPMI ATCC+10% FCS, +Penicillin/Streptomycin). […] Compounds are added by using a HP D3000 Digital Dispenser one day after plating the cells. All treatments are performed in technical triplicates. Treated cells are incubated for 72 h at 37° C. with 5% CO2. CellTiter-Glo® Luminescent Cell Viability Assay (Promega) is performed and chemoluminescence is measured by using the multilabel Plate Reader VICTOR X4. The raw data are imported into and analyzed with the Boehringer Ingelheim proprietary software MegaLab (curve fitting based on the program PRISM, GraphPad Inc.).

The test system of assay [5] is Ba/F3 cells expressing EGFR WT. The assay is described as follows: Ba/F3 proliferation assay, EGFR WT (EGF dependent), CellTiter-Glo. The note with it: Mus musculus, BaF3, EGF instead of IL-3, 72 h, read-out: GI50 BAF3 EGF dep. The procedure:
as §1, §2

Assay [6] relates to EGFR WT dependent A431 cells. The experiment in a line: Tumor cell line proliferation assay, EGFR WT dependent A431 cells, CellTiter-Glo. The following applies: Homo sapiens, A-431, 72 h, read-out: GI50 A431 EGFR wt amp. The method, then:
as §3

Assay [7] concerns NCI-H2170 HER2 YVMA cells. The assay is described as follows: Tumor cell line proliferation assay, NCI-H2170 HER2 YVMA, CellTiter-Glo. The following applies: Homo sapiens, 72 h, read-out: GI50 NCI H-2170 HER2 YVMA.
Description: HER2 YVMA Tumor Cell Line Model Generation and Proliferation Assays
Homology-directed genome engineering is employed to insert a 12 nucleotide sequence encoding YVMA into Exon 20 of the genomic HER2 locus in NCI-H2170 cells. […] The DNA template containing the HER2 exon 20 YVMA insertion variant was obtained from GenScript. PCR followed by Sanger sequencing is used to confirm the presence of the 12-nucleotide insertion in HER2 Exon 20 resulting in the YVMA amino acid duplication.
as §3

The subject of assay [8] is Ba/F3 cells HER2 mutants (YVMA). The experiment in a line: Ba/F3 proliferation assay, HER2 YVMA, CellTiter-Glo. The following applies: Mus musculus, BaF3, 72 h. The method, then:
as §1, §2

T2 sequence (P00533 25-1210): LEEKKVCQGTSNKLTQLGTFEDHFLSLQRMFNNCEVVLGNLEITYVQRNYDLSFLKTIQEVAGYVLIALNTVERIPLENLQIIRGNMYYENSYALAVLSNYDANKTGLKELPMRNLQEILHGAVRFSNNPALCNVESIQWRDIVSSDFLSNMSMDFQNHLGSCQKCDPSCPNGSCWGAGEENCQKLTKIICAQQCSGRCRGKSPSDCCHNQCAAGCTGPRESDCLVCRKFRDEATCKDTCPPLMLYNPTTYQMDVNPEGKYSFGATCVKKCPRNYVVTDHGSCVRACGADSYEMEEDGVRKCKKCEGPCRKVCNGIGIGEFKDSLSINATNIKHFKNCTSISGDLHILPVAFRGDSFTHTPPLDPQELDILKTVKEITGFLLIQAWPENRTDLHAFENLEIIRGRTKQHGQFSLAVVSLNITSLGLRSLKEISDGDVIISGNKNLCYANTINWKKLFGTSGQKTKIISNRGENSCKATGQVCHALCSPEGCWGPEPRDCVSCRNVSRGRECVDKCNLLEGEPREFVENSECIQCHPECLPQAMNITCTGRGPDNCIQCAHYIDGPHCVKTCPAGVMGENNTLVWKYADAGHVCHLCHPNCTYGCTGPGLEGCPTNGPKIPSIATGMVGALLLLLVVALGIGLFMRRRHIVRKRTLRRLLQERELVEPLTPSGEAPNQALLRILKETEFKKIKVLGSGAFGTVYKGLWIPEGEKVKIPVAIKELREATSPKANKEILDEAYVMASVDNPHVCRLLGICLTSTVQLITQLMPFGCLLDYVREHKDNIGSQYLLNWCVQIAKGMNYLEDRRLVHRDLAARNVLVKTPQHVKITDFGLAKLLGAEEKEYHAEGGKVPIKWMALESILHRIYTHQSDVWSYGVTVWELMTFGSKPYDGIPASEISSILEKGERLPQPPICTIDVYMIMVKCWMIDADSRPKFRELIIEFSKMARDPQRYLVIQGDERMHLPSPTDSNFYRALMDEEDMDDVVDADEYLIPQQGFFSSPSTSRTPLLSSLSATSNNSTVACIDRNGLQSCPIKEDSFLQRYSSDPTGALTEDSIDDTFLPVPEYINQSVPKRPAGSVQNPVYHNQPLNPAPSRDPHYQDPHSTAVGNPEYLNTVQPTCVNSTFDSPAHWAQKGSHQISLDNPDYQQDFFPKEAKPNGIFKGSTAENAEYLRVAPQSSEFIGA
T1 sequence (P04626 with tags, fused parts or gaps INS775YVMA): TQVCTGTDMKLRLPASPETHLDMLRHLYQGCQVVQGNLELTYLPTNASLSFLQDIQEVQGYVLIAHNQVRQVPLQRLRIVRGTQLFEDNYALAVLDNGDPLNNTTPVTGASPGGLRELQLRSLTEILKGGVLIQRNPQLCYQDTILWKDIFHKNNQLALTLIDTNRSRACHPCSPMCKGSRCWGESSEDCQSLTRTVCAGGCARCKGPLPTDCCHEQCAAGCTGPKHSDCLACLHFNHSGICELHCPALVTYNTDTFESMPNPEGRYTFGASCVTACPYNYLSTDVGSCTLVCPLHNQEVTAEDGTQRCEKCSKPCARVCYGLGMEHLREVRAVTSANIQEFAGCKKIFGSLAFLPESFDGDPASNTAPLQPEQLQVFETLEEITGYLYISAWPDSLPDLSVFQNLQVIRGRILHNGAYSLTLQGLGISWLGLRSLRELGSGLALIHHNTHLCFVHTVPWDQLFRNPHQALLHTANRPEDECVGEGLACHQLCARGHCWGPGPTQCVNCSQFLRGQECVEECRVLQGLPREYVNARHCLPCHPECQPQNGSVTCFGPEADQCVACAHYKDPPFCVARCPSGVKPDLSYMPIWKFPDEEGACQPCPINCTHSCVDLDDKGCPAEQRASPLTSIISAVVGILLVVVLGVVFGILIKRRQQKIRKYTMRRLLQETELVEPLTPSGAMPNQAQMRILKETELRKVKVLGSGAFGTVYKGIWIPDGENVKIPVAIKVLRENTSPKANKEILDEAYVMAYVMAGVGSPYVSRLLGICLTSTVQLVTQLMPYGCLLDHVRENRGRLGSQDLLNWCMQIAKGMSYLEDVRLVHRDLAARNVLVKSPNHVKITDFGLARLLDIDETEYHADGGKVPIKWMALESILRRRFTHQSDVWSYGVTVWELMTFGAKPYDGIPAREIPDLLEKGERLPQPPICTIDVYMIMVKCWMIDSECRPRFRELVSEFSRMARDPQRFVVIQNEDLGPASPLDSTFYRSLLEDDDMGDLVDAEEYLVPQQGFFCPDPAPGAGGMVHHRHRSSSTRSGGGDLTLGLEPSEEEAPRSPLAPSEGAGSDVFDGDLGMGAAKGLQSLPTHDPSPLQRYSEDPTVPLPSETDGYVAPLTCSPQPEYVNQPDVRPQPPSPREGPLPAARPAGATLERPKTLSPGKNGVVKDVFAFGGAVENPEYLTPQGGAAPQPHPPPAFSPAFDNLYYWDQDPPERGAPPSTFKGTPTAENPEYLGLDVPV

With `C=CC(=O)NC1CN(c2ncc3ncnc(Nc4ccc(Oc5ccc6c(c5)ncn6C)c(Cl)c4)c3n2)C1` [Example I-08], the IC50 in assay [1] was found to be 58 nM; in assay [3], 336 nM. The 50% growth inhibitory concentration (GI50) in assay [2] stood at 2 nM; in assay [4] it was 8 nM; in assay [5], 2300 nM; in assay [6], 1500 nM; in assay [7], 44 nM; in assay [8], 36 nM.

For `C=CC(=O)NC1CN(c2ncc3ncnc(Nc4ccc(Oc5ccn6ncnc6c5)c(C)c4)c3n2)C1` [Example I-09], the IC50 turned out to be 26 nM in assay [1] and 715 nM in assay [3]. The GI50 is 1 nM in assay [2]; 9 nM in assay [4]; 2240 nM in assay [5]; > 5000 nM in assay [6]; 75 nM in assay [7]; 29 nM in assay [8].

In the case of `C#Cc1cc(Nc2ncnc3cnc(N4CC(NC(=O)C=C)C4)nc23)ccc1Oc1ccn2ncnc2c1` [Example I-10], the IC50 in assay [1] amounted to 24 nM; in assay [3] it was 217 nM. For the same compound, the GI50 stood at 3 nM in assay [2]; 12 nM in assay [4]; 1650 nM in assay [5]; 1460 nM in assay [6]; 126 nM in assay [7]; 35 nM in assay [8].

As to `C=CC(=O)NC1CCN(c2ncc3ncnc(Nc4ccc(Oc5ccn6ncnc6c5)c(C)c4)c3n2)CC1` [Example I-11], the IC50 in assay [1] is 22 nM; in assay [3] it was 521 nM. The GI50 in assay [2] was 2 nM; in assay [4], 8 nM; in assay [5], > 2000 nM; in assay [6], 1250 nM; in assay [7], 172 nM; in assay [8] it was 28 nM.

On to `C=CC(=O)NC1CCN(c2ncc3ncnc(Nc4ccc(Oc5ccn6ccnc6c5)c(C)c4)c3n2)CC1` [Example I-12], for which the IC50 in assay [1] turned out to be 16 nM; in assay [3], 230 nM. Moreover, the GI50 was 2 nM in assay [2]; 8 nM in assay [4]; 1750 nM in assay [5]; > 5000 nM in assay [6]; 71 nM in assay [7]; 18 nM in assay [8].

`C=CC(=O)NC1CN(c2ncc3ncnc(Nc4ccc(Oc5cnc6c(c5)ncn6C)c(C)c4)c3n2)C1` [Example I-13]: the IC50 in assay [1] amounted to 28 nM; in assay [3], 429 nM. For the same compound, the GI50 in assay [2] is 1 nM; in assay [4], 19 nM; in assay [5] it was > 2000 nM; in assay [6], > 5000 nM; in assay [7], 82 nM; in assay [8], 32 nM.

Consider `C=CC(=O)N1CCC(Nc2ncc3ncnc(Nc4ccc(Oc5ccc6c(c5)ncn6C)c(C)c4)c3n2)CC1` [Example I-14], for which the IC50 amounted to 11 nM in assay [1] and 73 nM in assay [3]. The GI50 is 2 nM in assay [2]; 10 nM in assay [4]; 756 nM in assay [5]; > 2000 nM in assay [6]; 37 nM in assay [7]; 17 nM in assay [8].

Take `C#Cc1cc(Nc2ncnc3cnc(NC4CCN(C(=O)C=C)CC4)nc23)ccc1Oc1ccc2c(c1)ncn2C` [Example I-15]: the results for the IC50 in assay [1] and in assay [3] were 12 nM and 86 nM, respectively. Besides, the GI50 in assay [2] amounted to 2 nM; in assay [4], 13 nM; in assay [5] it was 425 nM; in assay [6], 948 nM; in assay [7], 44 nM; in assay [8], 18 nM.

In the case of `C=CC(=O)N1CCC(Nc2ncc3ncnc(Nc4ccc(Oc5ccn6ncnc6c5)c(C)c4)c3n2)CC1` [Example I-16], the IC50 in assay [1] came to 5 nM; in assay [3] it was 23 nM. Besides, the GI50 in assay [2] turned out to be 1 nM; in assay [4], 4 nM; in assay [5] it was 375 nM; in assay [6], 660 nM; in assay [7], 19 nM; in assay [8], 10 nM.

Regarding `C=CC(=O)N1CC[C@H](Nc2ncc3ncnc(Nc4ccc(Oc5ccn6ncnc6c5)c(C)c4)c3n2)C1` [Example I-17], the IC50 in assay [1] came out at 2 nM; in assay [3], 94 nM. For the same compound, the GI50 in assay [2] was 2 nM; in assay [4] it was 9 nM; in assay [5], 1100 nM; in assay [6], > 2000 nM; in assay [7], 39 nM; in assay [8], 14 nM.

Consider `C=CC(=O)N1CC(Nc2ncc3ncnc(Nc4ccc(Oc5ccn6ncnc6c5)c(C)c4)c3n2)C1` [Example I-19], for which the values for the IC50 in assay [1] and in assay [3] were 8 nM and 41 nM, respectively. For the same compound, the GI50 was determined as 2 nM in assay [2]; 8 nM in assay [4]; 206 nM in assay [5]; 752 nM in assay [6]; 34 nM in assay [7]; 11 nM in assay [8].

For the compound `Cc1cc(Nc2ncnc3ccc(NC4=NC(C)(C)CO4)cc23)ccc1Oc1ccn2ncnc2c1` [Tucatinib, reference compound], the values for the concentration for half-maximal inhibition (IC50) in assay [1] and in assay [3] were 4 nM and 1410 nM, respectively. The GI50 was found to be 10 nM in assay [2]; 58 nM in assay [4]; 2970 nM in assay [5]; 4220 nM in assay [6]; 798 nM in assay [7]; 338 nM in assay [8].
